# Assay results: US12286437B2, “Cardiac sarcomere inhibitors” (Cytokinetics, Inc., priority 2021, dated 2025)
# Columns and labels:
# [1] = test system: bovine cardiac myofibrils; assay: Myofibril assay (ATPase activity of skinned bovine cardiac myofibrils, PK/LDH-coupled); format: biochemical; settings: inhibition of steady-state ATPase of bovine cardiac myofibrils; CaCl2 for 50% or 75% activation
# Procedure: To evaluate the effect of compounds on the ATPase activity of full-length cardiac myosin in the context of the native sarcomere, skinned myofibril assays were performed. Bovine cardiac myofibrils were obtained by homogenizing bovine cardiac left ventricular tissue in the presence of a detergent such as triton X-100. Such treatment removes membranes and a majority of the soluble cytoplasmic proteins but leaves intact the cardiac sarcomeric acto-myosin apparatus. Myofibril preparations retain the ability to hydrolyze ATP in a Ca^2+ regulated manner. ATPase activities of such myofibril preparations in the presence and absence of compounds were assayed at Ca^2+ concentrations activating to a defined fraction of the maximal rate (i.e., […], 75%). Small molecule agents were assessed for their ability to inhibit the steady-state ATPase activity of bovine cardiac myofibrils using pyruvate kinase and lactate dehydrogenase (PK/LDH)-coupled enzyme system. This assay regenerates myosin-produced ADP into ATP by oxidizing NADH, producing an absorbance change at 340 nm. Prior to testing small molecule agents, the bovine cardiac myofibrils were assessed for their calcium responsiveness and the calcium concentration that achieves either a 50% (pCa50) or 75% (pCa75) activation of the myofibril system was chosen as the final condition for assessing the inhibitory activity of the small molecule agents. All enzymatic activity was measured in a buffered solution containing 12 mM PIPES (piperazine-N,N′-bis(2-ethanesulfonic acid), 2 mM magnesium chloride at pH 6.8 (PM 12 buffer). Final assay conditions were 1 mg/mL of bovine cardiac myofibrils, 4 U/mL pyruvate kinase, 6 U/mL lactate dehydrogenase, 50 μM ATP, 0.1 mg/mL BSA (bovine serum albumin), 10 ppm antifoam, 1 mM DTT, 0.5 mM NADH, 1.5 mM PEP, 0.6 mM EGTA, and an amount of CaCl2 sufficient to achieve either 50% or 75% activation of the myofibril ATPase activity. Results for compounds tested are provided in Table A. Compounds tested were prepared in accordance with the synthetic procedures described herein.
# [2] = Dog single dose pharmacokinetics; format: in vivo, beagle dogs; settings: male, beagle, plasma, IV, read-out: t½ (converted)
# Procedure: Non-naïve male beagle dogs (8 months-3 years of age, body weight 8-13 kg) were used in this study. All animals for IV administration had free access to food and water; all animals for PO were fasted overnight prior to dosing and were fed approximately 6 hours after dosing. For the animals in PO group, pentagastrin (6.0 μg/kg, i.m.) was administrated 20 minutes before dosing PO formulation and 1.5 hours after the first pentagastrin dosing. The dosing volume was 0.024 mL/kg, the concentration was 250 μg/mL in DMSO/1 N NaOH/PBS. 10 mL of 0.001 N HCl was used to wash the gavage catheter for each animal. The IV dose solution was prepared in 10% DMA/50% PG/40% HPβCD solution (40% w/v aqueous HPβCD) at a concentration of 1.0 mg/mL. The oral dose suspension was prepared by suspending the compound in 0.5% HPMC/0.1% Tween 80 in distilled water at a concentration of 0.2 mg/mL. Concentrations of IV and PO doses were measured at the end of the study. PK parameters were calculated using the nominal dose values if the measured values were within 20% of the nominal values. Blood samples were collected by venipuncture of peripheral veins except the dosing vein at pre-dose, 5 15, 30 min, 1, 2, 4, 6, 8, 24 and 48 h post-dose. Blood samples were centrifuged and resultant plasma was frozen for bioanalysis. Plasma samples were stored at −80° C. before analysis. Plasma samples were analyzed for compound concentrations using the LC/MS/MS method. Briefly, a 50 μL aliquot of each plasma sample was mixed with 100 μL of acetonitrile that contained an internal standard. The mixture was vortexed and centrifuged. Ten (10) μL of the resulting solution was injected onto a reverse-phase C18 column and the resultant peaks detected on a LC/MS/MS equipped with a turbo ionspray ionization source. Sample concentrations below the limit of quantification (BLQ) were treated as zero for PK calculations. PK parameters were estimated from individual animals using noncompartmental analysis of the concentration-time data (Phoenix WinNonLin software, version 64; Pharsight, Mountain View, CA). The elimination rate constant (k) was calculated as the absolute value of the slope of the linear regression of logarithm (log) of the concentration versus time for the last three data points of the concentration-time profiles. Apparent elimination half-life (t1/2) values were calculated as ln(2)/k. Area under the concentration-time curve (AUC) values were estimated using linear trapezoidal method. AUCt values were calculated from the dosing time to the last measurable concentration. AUC∞ values were calculated as the sum of the corresponding AUCt and the ratio of the last detectable concentration divided by k. Plasma clearance (CL) was calculated from Dose/AUC∞. Mean resident time extrapolated to infinity (MRT∞) was estimated by moment analysis. Vss was calculated from MRT∞×CL. Maximum concentration (Cmax) and time to reach Cmax (tmax) were recorded as observed. As this was a cross-over study, bioavailability was calculated dAUC∞,po/dAUC∞,iv×100% where dAUC was the dose normalized AUC value from the same animal given IV and PO dose. Data for compounds tested are provided in Table D. Compounds tested were prepared in accordance with the synthetic procedures described herein.
# [3] = Projected single-dose CL and Vss values in humans (allometric scaling of mouse, rat, dog, monkey IV PK); settings: human, projected by allometric scaling from single-dose IV PK
# Procedure: Allometric scaling for the prediction of human Clearance and Volume of Distribution was based on interspecies simple allometric scaling of mouse, rat, dog, and cynomolgus monkey intravenous pharmacokinetic parameters (Boxenbaum, J Pharmacokinet Biopharm 10:201-27, 1982). Prediction of human CL was performed by extrapolating pre-clinical species' plasma intravenous clearance. The ‘rule of exponents’ (Mahmood & Balian, Life Sci 59:579-85, 1996) was examined in this prediction, where it has been proposed that, when the exponent of simple allometry lies between […] and 0.99, a correction factor based on Maximum Life Span (MLP) of this species can be applied and, when the exponent of simple allometry is greater than 1.0, a correction factor based on Brain Weight (BrW) can be applied, or a protein binding correction can be applied when available. In a similar manner, simple allometric scaling was employed to predict human Volume of Distribution. This method has been used successfully for varied drugs (Ward & Smith, Drug Metab Dispos 32:612-19, 2004; McGinnity et al., Curr Drug Metab 8:463-79, 2007).
# CYP3A4 = target: T1, CYP3A4 (Homo sapiens, UniProt P08684); assay: Time-dependent inhibition of CYP3A4 in human liver microsomes (testosterone and midazolam probes); format: in vitro ADME; settings: for (% Activity NADPH T0)/(% Activity NADPH T30): fold change
# T1 construct: Pooled human microsomes and selective CYP probe substrates were used; from tissue; host or cells: pooled human liver microsomes
# T1 sequence (P08684 whole entry): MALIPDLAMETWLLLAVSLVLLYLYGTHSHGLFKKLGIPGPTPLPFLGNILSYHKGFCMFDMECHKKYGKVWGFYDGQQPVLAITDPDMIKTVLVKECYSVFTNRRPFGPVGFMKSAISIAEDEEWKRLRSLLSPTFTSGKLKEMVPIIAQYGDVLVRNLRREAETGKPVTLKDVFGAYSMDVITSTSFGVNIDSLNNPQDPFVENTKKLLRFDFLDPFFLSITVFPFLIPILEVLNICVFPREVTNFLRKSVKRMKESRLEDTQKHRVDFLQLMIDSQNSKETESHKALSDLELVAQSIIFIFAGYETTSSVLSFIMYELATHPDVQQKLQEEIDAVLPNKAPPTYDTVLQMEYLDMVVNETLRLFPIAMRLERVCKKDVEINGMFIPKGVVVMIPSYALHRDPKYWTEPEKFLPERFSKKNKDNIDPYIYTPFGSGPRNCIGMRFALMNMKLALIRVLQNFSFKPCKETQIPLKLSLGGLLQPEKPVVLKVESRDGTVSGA
# Procedure: An assessment of the time-dependent Inhibitory Potential of the test compounds against Principal Human Cytochrome P450 Isozymes using Human Liver Microsomes was also carried out using standard methods (Grimm et al, Drug Metab. Dispos., July; 37(7):1355-70. doi: 10.1124/dmd.109.026716, 2009). Pooled human microsomes and selective CYP probe substrates were used for in vitro assessment of test compounds at 25 and 50 μM as time-dependent inhibitors of […] human hepatic cytochrome P450 isozymes (CYP1A2, 2B6, 2C9, 2C19, 2D6, and 3A4). LC-MS/MS was used to quantify metabolite formation. The inhibition of each P450 enzyme in human liver microsomes was measured as the percentage decrease in the activity of marker metabolite formation as measured by LC-MS/MS compared to non-inhibited controls (=100% activity) at time zero and after 30 minutes incubation. The occurrence of any time dependent inhibition was then expressed as the fold change in enzyme activity at time zero relative to the activity after 30 minutes incubation.
SMILES,CDMF IC15 [1] [nM],half-life [2] [h],Projected CL [3] [mL/min/kg],Projected t½ [3] [h],Projected Vss [3] [L/kg],"(% Activity NADPH T0)/(% Activity NADPH T30) (CYP3A4; CYP3A4-M (midazolam probe substrate), 25 μM)","(% Activity NADPH T0)/(% Activity NADPH T30) (CYP3A4; CYP3A4-M (midazolam probe substrate), 50 μM)","(% Activity NADPH T0)/(% Activity NADPH T30) (CYP3A4; CYP3A4-T (testosterone probe substrate), 25 μM)","(% Activity NADPH T0)/(% Activity NADPH T30) (CYP3A4; CYP3A4-T (testosterone probe substrate), 50 μM)","change in fold activity of 3A4 (time dependent inhibition) (CYP3A4; both midazolam and testosterone probes, 25 and 50 μM) [fold]"
"O=CN1CC2(C1)C(=O)N(c1ccc(F)cc1F)CC(=O)N2Cc1ccc(Cl)cc1 [Comparator A, 5-(4-chlorobenzyl)-8-(2,4-difluorophenyl)-6,9-dioxo-2,5,8-triazaspiro[3.5]nonane-2-carbaldehyde, reference compound]",1800,39.2,1.44,38.7,–,–,–,–,–,–
"CC(=O)N1CC2(C1)C(=O)N(c1ccc(C#N)cc1F)CC(=O)N2Cc1ccc(C(F)(F)F)cc1 [Comparator D, 4-(2-acetyl-6,9-dioxo-5-(4-(trifluoromethyl)benzyl)-2,5,8-triazaspiro[3.5]nonan-8-yl)-3-fluorobenzonitrile]",1100,23.7,0.96,62,5.16,–,–,–,–,–
"O=C1[C@H](C2COC2)N(Cc2ccc(C(F)(F)F)cc2)C(=O)CN1c1ncc(Cl)cc1F [Comparator C, (S)-1-(5-chloro-3-fluoropyridin-2-yl)-3-(oxetan-3-yl)-4-(4-(trifluoromethyl)benzyl)piperazine-2,5-dione, reference compound]",1100,14.7,3.9,41,13.9,1.6,1.7,1.8,1.8,> 1.5
"O=CN1CC2(C1)C(=O)N([C@H]1CC[C@H](C(F)F)CC1)CC(=O)N2Cc1ccc(C(F)(F)F)cc1 [Comparator E, 8-((1r,4r)-4-(difluoromethyl)cyclohexyl)-6,9-dioxo-5-(4-(trifluoromethyl)benzyl)-2,5,8-triazaspiro[3.5]nonane-2-carbaldehyde]",1300,33.1,1.2,51.7,5.5,–,–,–,–,–
